According to ChEMBL document CHEMBL3243976, “Ring D oxygenated Spirolactones. Characterization of human metabolic product of spironolactone” (1977):

Tests used:
Assay type in all cases: functional, Urine
Rattus norvegicus [1] = assay: Antimineralocorticoid activity in adrenalectomized rat assessed as urinary log (Na X 10)/K at 2.4 mg, sc administered post deoxycorticosterone acetate treatment relative to control
Rattus norvegicus [2] = assay: Antimineralocorticoid activity in adrenalectomized rat assessed as urinary log (Na X 10)/K at 2.4 mg, sc administered post deoxycorticosterone acetate treatment relative to spironolactone
Rattus norvegicus [3] = assay: Antimineralocorticoid activity in sc dosed adrenalectomized rat assessed as urinary log (Na X 10)/K administered post deoxycorticosterone acetate treatment relative to spironolactone
Rattus norvegicus [4] = assay: Antimineralocorticoid activity in po dosed adrenalectomized rat assessed as urinary log (Na X 10)/K administered post deoxycorticosterone acetate treatment relative to spironolactone

| SMILES | T/C (Rattus norvegicus [1]) | further results |
| --- | --- | --- |
| C[C@]12CCC(=O)C=C1C=C[C@H]1[C@@H]3[C@@H](O)C[C@@]4(CCC(=O)O4)[C@@]3(C)CC[C@@H]12 | 0.62 |  |
| CC(=O)O[C@H]1C[C@@]2(CCC(=O)O2)[C@@]2(C)CC[C@H]3[C@@H](C=CC4=CC(=O)CC[C@@]43C)[C@H]12 | 0.77 |  |
| C[C@]12CCC(=O)C=C1C=C[C@@H]1[C@@H]2CC[C@@]2(C)[C@H]1C(=O)C[C@@]21CCC(=O)O1 | 1.01 | Activity (Rattus norvegicus [2]): 15% |
| C[C@]12CCC(=O)C=C1C=C[C@@H]1[C@@H]2CC[C@@]2(C)[C@H]1C[C@H](O)[C@@]21CCC(=O)O1 | 0.84 |  |
| C[C@]12CCC(=O)C=C1C=C[C@H]1C3=CC[C@@]4(CCC(=O)O4)[C@@]3(C)CC[C@@H]12 | 0.67 |  |
| C[C@]12CCC(=O)C=C1C=CC1=C3CC[C@@]4(CCC(=O)O4)[C@@]3(C)CC[C@@H]12 | 0.82 |  |
| C[C@]12CCC(=O)C=C1C=C[C@@H]1[C@@H]2CC[C@@]2(C)[C@H]1CC[C@@]21CCC(=O)O1 [CANRENONE] |  | Activity (Rattus norvegicus [3]): 38%; Activity (Rattus norvegicus [4]): 35% |
